The results in this text go back to US20230263822A1, “MODULATION OF FACTOR 11 EXPRESSION” (Ionis Pharmaceuticals, Inc., priority 2008, published 2023).

Data set [1] is described as follows: Liver function, ALT, AST, bilirubin in cynomolgus monkeys (Example 45). The class given is in vivo. As to conditions: plasma, escalating dose regimen. On the procedure: (§1) Groups, each consisting of two male and three female monkeys, were injected subcutaneously with ISIS 416838, ISIS 416850, ISIS 416858, ISIS 416864, or ISIS 417002 in escalating doses. Antisense oligonucleotide was administered to the monkeys at 5 mg/kg three times per a week for week 1; 5 mg/kg twice per week for weeks 2 and 3; 10 mg/kg three times per week for week 4; 10 mg/kg twice per week for weeks 5 and 6; 25 mg/kg three times per week for week 7; and 25 mg/kg twice per week for weeks 8, 9, 10, 11, and 12. One control group, consisting of two male and three female monkeys, was injected subcutaneously with PBS according to the same dosing regimen. An additional experimental group, consisting of two male and three female monkeys, was injected subcutaneously with ISIS 416850 in a chronic, lower dose regimen. Antisense oligonucleotide was administered to the monkeys at 5 mg/kg three times per week for week 1; 5 mg/kg twice per week for week 2 and 3; 10 mg/kg three times per week for week 4; and 10 mg/kg twice per week for weeks 5 to 12. Body weights were measured weekly. Blood samples were collected 14 days and 5 days before the start of treatment and subsequently once per week for Factor 11 protein activity analysis in plasma, fibrinogen measurement, PT and aPTT measurements, bleeding times, and measurement of various hematologic factors. On day 85, the monkeys were euthanized by exsanguination while under deep anesthesia, and organs harvested for further analysis.
The ISIS oligonucleotide, ISIS 416850, given with the chronic dose regimen is distinguished from the other oligonucleotides with an asterisk (*).

Data set [2] concerns Factor 11 protein. The data set is described as follows: Factor 11 protein in monkey plasma by sandwich ELISA (Example 45). The class given is in vivo, cynomolgus monkeys. As to conditions: escalating dose regimen, plasma ELISA. On the procedure:
as §1
Plasma samples from all monkey groups taken on different days were analyzed by a sandwich-style ELISA assay (Affinity Biologicals Inc.) using an affinity-purified polyclonal anti-Factor 11 antibody as the capture antibody and a peroxidase-conjugated polyclonal anti-Factor 11 antibody as the detecting antibody. Monkey plasma was diluted 1:50 for the assay. Peroxidase activity was expressed by incubation with the substrate o-phenylenediamine. The color produced was quantified using a microplate reader at 490 nm and was considered to be proportional to the concentration of Factor 11 in the samples.
The results are presented in Table 115, expressed as percentage reduction relative to that of the PBS control.
Background: An ELISA detects its analyte on a solid surface through an enzyme-linked reagent.

The nature of data set [3]: Tolerability in CD1 mice: hematology assays (Example 41). As to conditions: 50 mg/kg s.c. twice per week for 6 weeks, blood.

Strand notation (5' to 3'): a small letter for the sugar, then the base; units joined by * are phosphorothioate-linked, units joined directly phosphodiester-linked; [ ] holds rarer units or linkages, { } end groups; capitals alone tell only the bases. e = 2'-O-(2-methoxyethyl) (MOE); [5mC] = 5-methylcytosine; d = 2'-deoxy (DNA)

Take “ISIS 416864: MOE gapmer, nucleobases 1275 to 1318 of SEQ ID NO: 1 (Table 8) (antisense GGCAGCGGACGGCATTGGTG; MOE gapmer, wing and gap sizes not given here)”: the ALT in data set [1] (day 22) is listed as 37 IU/L; in data set [1] (day 43), 36 IU/L; in data set [1] (day 64), 43 IU/L; in data set [1] (day 85), 43 IU/L; in data set [1] (day −14), 54 IU/L. Also, the AST in data set [1] (day 22) is reported as 41 IU/L; in data set [1] (day 43), 40 IU/L; in data set [1] (day 64), 46 IU/L; in data set [1] (day 85), 56 IU/L; in data set [1] (day −14), 76 IU/L. Moreover, the Bilirubin in data set [1] (day 22) turned out to be 0.22 mg/dL; in data set [1] (day 43), 0.17 mg/dL; in data set [1] (day 64), 0.16 mg/dL; in data set [1] (day 85), 0.17 mg/dL; in data set [1] (day −14) it was 0.31 mg/dL. Also, the “Inhibition of Factor 11 protein relative to the PBS control” value in data set [2] (day 8) amounted to 7%; in data set [2] (day 15), 9%; in data set [2] (day 22), 7%; in data set [2] (day 29), 10%; in data set [2] (day 36), 9%; in data set [2] (day 43), 9%. The “Inhibition of Factor 11 protein relative to the PBS control” value in data set [2] (day 50) is recorded as 10%; in data set [2] (day 57) it was 7%; in data set [2] (day 64) it was 5%; in data set [2] (day 71), 10%; in data set [2] (day 78), 9%; in data set [2] (day 85), 8%. The “Inhibition of Factor 11 protein relative to the PBS control” value in data set [2] (day −5) was 5%; in data set [2] (day −14), 0%.
For “ISIS 417002: MOE gapmer, nucleobases 1275 to 1318 of SEQ ID NO: 1 (Table 8) (antisense GGTGCACAGTTTCTGGCAGG; MOE gapmer, wing and gap sizes not given here)”, the ALT is recorded as 36 IU/L in data set [1] (day 22); 35 IU/L in data set [1] (day 43); 42 IU/L in data set [1] (day 64); 116 IU/L in data set [1] (day 85); 61 IU/L in data set [1] (day −14). Further, the AST came out at 44 IU/L in data set [1] (day 22); 42 IU/L in data set [1] (day 43); 37 IU/L in data set [1] (day 64); 50 IU/L in data set [1] (day 85); 114 IU/L in data set [1] (day −14). The Bilirubin was determined as 0.20 mg/dL in data set [1] (day 22); 0.21 mg/dL in data set [1] (day 43); 0.14 mg/dL in data set [1] (day 64); 0.12 mg/dL in data set [1] (day 85); 0.26 mg/dL in data set [1] (day −14). In addition, the “Inhibition of Factor 11 protein relative to the PBS control” value in data set [2] (day 8) stood at 0%; in data set [2] (day 15) it was 4%; in data set [2] (day 22) it was 2%; in data set [2] (day 29), 8%; in data set [2] (day 36) it was 8%; in data set [2] (day 43) it was 9%. Further, the “Inhibition of Factor 11 protein relative to the PBS control” value in data set [2] (day 50) is 13%; in data set [2] (day 57) it was 24%; in data set [2] (day 64), 26%; in data set [2] (day 71) it was 30%; in data set [2] (day 78), 22%; in data set [2] (day 85), 23%. The “Inhibition of Factor 11 protein relative to the PBS control” value in data set [2] (day −5) and in data set [2] (day −14) was 0% each time.
In data set [3], “ISIS 445522: 5-8-5 or 6-8-6 MOE microwalk gapmer (Table 44) (antisense eG*e[5mC]*eA*e[5mC]*eA*dG*dT*dT*dT*d[5mC]*dT*dG*dG*e[5mC]*eA*eG*eG*e[5mC])” registered an HCT of 49%, a Lymphocyte of 3997, a Neutrophil of 698 and a Platelets of 1005. In data set [3], this substance had an RBC of 9.7, a WBC of 5 and a hemoglobin of 14.6 g/dL.
For the substance “ISIS 445531: 5-8-5 or 6-8-6 MOE microwalk gapmer (Table 44) (antisense eG*eG*e[5mC]*eA*eT*dT*dG*dG*dT*dG*d[5mC]*dA*d[5mC]*eA*eG*eT*eT*eT)”, in data set [3], the HCT was found to be 48%, the Lymphocyte is listed as 6125, the Neutrophil was 2341 and the Platelets amounted to 996. In data set [3], this substance yielded an RBC of 9.4, a WBC of 9 and a hemoglobin of 14.5 g/dL.
